In patent US20170342136A1, “MONOCLONAL ANTIBODY AGAINST MURAMYL PEPTIDES IN PREVENTION AND TREATMENT OF IMMUNE-MEDIATED DISEASES” (Agency for Science, Technology and Research, priority 2015, published 2017):

Tests used:
[1] = tested on: Collagen Induced Arthritis (CIA) mouse model; assay: Collagen Induced Arthritis (CIA) mouse model with implanted osmotic pump releasing MDP; type: in vivo, DBA/1J mice
Method: (A) illustrates the subcutaneous implantation of an osmotic pump loaded with 200 µl of 5 mg/ml MDP and released at a rate of 0.25μ1/hr onto the back of a mouse.
DBA/1J mice were induced to develop arthritis by immunization with an emulsion of complete Freund's adjuvant and type II collagen, and each mouse also carried an implanted pump as described in FIG. 5 that releases either PBS or MDP at 0.25 μl/hr.

[2] = tested on: Escherichia coli; assay: MPs in culture supernatant with or without amoxicillin, competitive ELISA using 2E7; type: cell-based; details: 40 μg per ml amoxicillin added at OD600=1.5
Method: (§1) The standard curve was used to determine the peptidoglycan concentration in a sample. […] Both bacteria were grown to OD600=1.5. Each culture was divided into two, and one treated with 40 μg/ml amoxicillin (Amx) and the other untreated. Aliquots were collected at the indicated times and the amount of MPs in the supernatant was determined by competitive ELISA. […] After removing unbound antibodies by PBS washes, the cells were incubated with a FITC-labeled anti-mouse IgG Ab before fluorescence microscopic examination.
(§2) For this test, Gram-positive bacterium Staphylococcus aureus, which has a thick peptidoglycan layer, and Gram-negative Escherichia coli, which has a thin peptidoglycan layer, were selected and grown in the presence or absence of amoxicillin. The culture was grown to a density of OD600=1.5 and then divided into two equal aliquots. To one aliquot, amoxicillin was added to a final concentration of 40 μg per ml, and to the other aliquot, no drug was added. Both cultures were allowed to continue to grow. Aliquots of cultures were collected at timed intervals and cells were removed by centrifugation. The amount of MPs in the supernatant was determined by competitive ELISA using 2E7.

[3] = tested on: Staphylococcus aureus; assay: as above; type: cell-based; details: 40 μg per ml amoxicillin added at OD600=1.5
Method: as §1, §2

[4] = Blood MP level after oral amoxicillin, competitive ELISA using 2E7; type: in vivo, mice; details: 100 mg/kg oral at 12-h intervals, 4 h after each feeding
Method: Amoxicillin was administered orally to 50 mice at 12-h intervals and three mice were sacrificed every 4 h to collect blood for peptidoglycan quantification by ELISA. […] Serial blood samples were taken. Time for blood draw and IV injection are indicated.
The MP level in serum was determined by competitive ELISA using an example of the antibody of the present disclosure, i.e. 2E7.

Row | Compound | clinical paw scores ([1]; increase in MDP concentration, time dependent, n=4) | development of rheumatoid arthritis ([1]; pump releasing MDP at 0.25 μl/hr vs PBS) | molecules in culture medium that inhibit 2E7 binding to MDP [2] | molecules in culture medium that inhibit 2E7 binding to MDP [3] | increase in the blood MP level [4]
1 | CC(=O)N[C@@H]1[C@@H](O[C@H](C)C(=O)N[C@@H](C)C(=O)N[C@H](CCC(=O)O)C(N)=O)[C@H](O)[C@@H](CO)O[C@H]1O [MDP] | increased clinical paw scores | promoted the development of rheumatoid arthritis |  |  | 
2 | CC1(C)S[C@@H]2[C@H](NC(=O)[C@H](N)c3ccc(O)cc3)C(=O)N2[C@H]1C(=O)O [amoxicillin] |  |  | sharp increase | sharp increase | 20-60%
